pKd: −log10 of the molar value. Entries after “also recorded” stand apart in the source; their conditions may differ. One block for each molecule: values may come before it.
Legend:
[1] = target: recombinant K-RAS12v protein (Homo sapiens, UniProt P01116, G12V); experiment: Thermofluor direct binding assay; conditions: for Thermofluor curve shift (direct binding): 200 uM compound/5 uM protein, K-RAS12v loaded with gamma GTPS
Procedure: Direct binding of F3/F3a derivative to recombinant K-RAS protein. Thermofluor assays were performed to assay whether direct interactions could be detected between recombinant K-RAS protein and compound F3, or recombinant K-RAS protein and compound JAB-6-5. Recombinant K-RAS12v protein was loaded with gamma GTPS and used in binding assays with a ratio of: 200 uM compound/5 uM protein. Control compound C4 is targeted at a different protein and was not expected to bind RAS. The results are the derivative of three assays performed in triplicate. […] A predicted kD can be extrapolated from the curve: ˜25 uM at 55.5° C.

[2] = Normal 2-D growth (cell line not stated); format: cell-based
Procedure: (§1) The compounds synthesized were tested in the 3-D soft agar drug screening, including F3, JAB-6-176 and JAB-8-60. All the compounds tested suppressed 3-D soft agar growth, but had little effect on normal 2-D growth. […] In Table 2, below, are listed different cell lines, with the results of testing F3 in the “REMARKS” column. All the cell lines are common and publicly available from the ATCC repository (www.atcc.org/en/Products/Cells_and_Microorganisms/Cell_Lines.aspx). NF1 mute are cells with defects in the NF1 gene (a negative regulator of RAS) causing hyper-activation of the wild type form of RAS. The same is true for DAB2IP deficient cells. EGFR+++ cells overexpress the EGFR receptor, which also results in the hyper-activation of wild type RAS,

A549 = experiment: 3-D soft agar drug screening, A549; format: cell-based; conditions: A549, K12S, Lung
Procedure: (§2) The technical process of 3-D culture involves preparing molten agar at 1.6% in culture medium and adding serum to 10%. 1 ml of this agar medium is plated per well in a 12 well plate and allowed to set. This is the bottom agar and prevents any cells added to the well from touching the plastic bottom of the plate, ensuring everything remains suspended. Meanwhile the remaining stock of agar medium is kept at 42° C. to prevent setting. Target cells are then trypsinized into a single cell suspension and mixed with normal medium/drug combination. ⅔ volume molten agar medium is then added and the mixture plated onto the bottom agar. The agar/medium sets as it cools, suspending the cells in a 3D environment. Typically, within 2 weeks, tumor spheres (colonies) will form suspended in the agar. The number of colonies, or even the size, may be counted under an inverted microscope and quantified to assay tumor sphere inhibition.
(§3) The compounds synthesized were tested in the 3-D soft agar drug screening, including F3, JAB-6-176 and JAB-8-60. All the compounds tested suppressed 3-D soft agar growth, but had little effect on normal 2-D growth. […] In Table 2, below, are listed different cell lines, with the results of testing F3 in the “REMARKS” column. All the cell lines are common and publicly available from the ATCC repository (www.atcc.org/en/Products/Cells_and_Microorganisms/Cell_Lines.aspx). […]

MDA-MB-231 = experiment: 3-D soft agar drug screening, MDA-MB-231; format: cell-based; conditions: MDA-MB-231, Kras13D and deficient for NF1, Breast; cells don't grow well in soft agar
Procedure: as §2, §3

[3] = system: wild-type RAS driven tumor cells; experiment: Soft agar growth of wild-type RAS driven tumor cells; format: cell-based
Procedure: (§4) Effects of the small molecule on growth in soft agar of A549 K-RAS driven lung tumor cell line and K-RAS driven pancreatic cancer cell line MiaPaCa-2 is shown. 0=carrier (DMSO). P values are less than 0.05, FIG. 5 and FIG. 6 show the effects of 10 uM of F3 on normal growth/survival in 2-D culture on plastic of the same cells. […] FIG. 7 is a graph showing that F3 is also effective against wild-type driven tumor cells, while FIG. 8 is a graph showing normal growth/survival in 2-D culture on plastic of the same cells.

tumor cells = experiment: 3-D soft agar drug screening (cell line not stated); format: cell-based
Procedure: as §2, §3

[4] = system: A549 K-RAS driven lung tumor cell line; experiment: Normal growth/survival in 2-D culture on plastic, A549; format: cell-based; conditions: 10 uM
Procedure: as §4

[5] = system: NCI-H441 (Lung cancer) xenograft tumors; experiment: Tumor inhibition of xenografts, NCI-H441; format: in vivo; conditions: NCI-H441 xenograft in NRG mice
Procedure: (§5) Compound F3 was tested in vivo, using cell line xenograft tumors in NRG mice. Cell lines used included Mia-Paca-2 (Pancreatic cancer), and NCI-H441 (Lung cancer). […] The results for Mia-Paca-2 are shown in FIG. 14 and FIG. 15 ([…] treated with DMSO/PBS (carrier) or F3 drug at 12 mg/kg every three days).

[6] = Preliminary in vivo toxicity assay; set-up: species or system NRG mice; conditions: i.p. 10 mg/kg every other day for 2 weeks
Procedure: A preliminary in vivo toxicity assay was performed on F3. NRG mice were i.p. injected with 10 mg/kg of drug every other day for 2 weeks.

Mia-Paca-2 = experiment: 3-D soft agar drug screening, Mia-Paca-2; format: cell-based; conditions: Mia-Paca-2, K12C, Pancreatic
Procedure: as §2, §3

[7] = system: K-RAS driven pancreatic cancer cell line MiaPaCa-2; experiment: Normal growth/survival in 2-D culture on plastic, MiaPaCa-2; format: cell-based; conditions: 10 uM
Procedure: as §4

Panc-1 = experiment: 3-D soft agar drug screening, Panc-1; format: cell-based; conditions: Panc-1, K12D, pancreatic
Procedure: as §2, §3

HTB-185 = experiment: 3-D soft agar drug screening, HTB-185; format: cell-based; conditions: HTB-185, DAB2IP deficient, Medulloblastoma
Procedure: as §2, §3

[8] = system: Mia-Paca-2 (Pancreatic cancer) xenograft tumors; experiment: Tumor inhibition of xenografts, Mia-Paca-2; format: in vivo, NRG mice; conditions: Mia-Paca-2 xenograft; 12 mg/kg every three days; P value 0.014
Procedure: as §5

CaoV3 = experiment: 3-D soft agar drug screening, CaoV3; format: cell-based; conditions: CaoV3, NF1mute, ovarian
Procedure: as §2, §3

SK-RC-45 = experiment: 3-D soft agar drug screening, SK-RC-45; format: cell-based; conditions: SK-RC-45, EGFR++++, kidney
Procedure: as §2, §3

Mia-Paca-2 cells = experiment: Anoikis assay on polyHEMA treated wells, trypan blue exclusion; format: cell-based; conditions: after 48 hours
Procedure: RAS activation leads to resistance to anoikis and inhibiting RAS function re-sensitizes […] cells to anoikis. The RAS/RalGDS pathway has been implicated as a significant component of RAS mediated anoikis suppression. […] After 48 hours the cultures were assayed for cell death by trypan blue exclusion.

HL-60 = experiment: Suspension culture growth, HL-60; format: cell-based; conditions: HL-60, NRASQ61L, AML
Procedure: as §1

S462.TY = experiment: 3-D soft agar drug screening, S462.TY; format: cell-based; conditions: NF1-mute, MPNST
Procedure: as §2, §3

H1299 = experiment: 3-D soft agar drug screening, H1299; format: cell-based; conditions: H1299, Hras61, Lung
Procedure: as §2, §3

A375 = experiment: 3-D soft agar drug screening, A375; format: cell-based; conditions: A375, B-RAF mute, melanoma; 2 uM
Procedure: as §2, §3

recombinant K-RAS12v protein, sequence (P01116 1-185 isoform P01116-2 G12V): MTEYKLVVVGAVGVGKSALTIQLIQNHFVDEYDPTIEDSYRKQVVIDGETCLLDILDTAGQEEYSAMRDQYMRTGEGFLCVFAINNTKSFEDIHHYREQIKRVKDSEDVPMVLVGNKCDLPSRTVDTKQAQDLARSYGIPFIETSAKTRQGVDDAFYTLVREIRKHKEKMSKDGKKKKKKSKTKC

Thermofluor curve shift (direct binding) [1]: significant curve shift
SMILES: Cc1ccc(NC(=O)CN(C)CC(=O)Nc2cccc(F)c2)cc1S(=O)(=O)N1CCCC1 [JAB-6-5]

Thermofluor curve shift (direct binding) [1]: significant curve shift
pKd ([1]; at 55.5° C., read-out: predicted kD extrapolated from the curve): ~4.60
SMILES: Cc1ccc(NC(=O)CN(C)CC(=O)Nc2cccc(F)c2)cc1S(=O)(=O)N1CCCCCC1 [Compound F3, N-(3-(Azepan-1-ylsulfonyl)-4-methylphenyl)-2-((2-((3-fluorophenyl)amino)-2-oxoethyl)(methyl)amino)-acetamide]
normal 2-D growth [2]: little effect
Soft agar growth (A549): specific inhibition; also recorded: Soft agar growth inhibited
Soft agar growth (MDA-MB-231): inhibited.
Effect against wild-type driven tumor cells [3]: effective
3-D soft agar growth (tumor cells): suppressed
cell growth in 2-D culture on plastic [4]: no effect
tumor volume as compared to controls [5]: reduction in tumor volume
signs of pain or distress [6]: No obvious signs of pain or distress
weight loss [6]: no weight loss
Soft agar growth (Mia-Paca-2): specific inhibition; also recorded: Soft agar growth inhibited
cell growth in 2-D culture on plastic [7]: no effect
Soft agar growth (Panc-1): Soft agar growth inhibited
Soft agar growth (HTB-185): Soft agar growth inhibited
tumor volume as compared to controls [8]: approximately half the volume
Soft agar growth (CaoV3): Soft agar growth inhibited
Soft agar growth (SK-RC-45): Soft agar growth inhibited
anoikis (cell death by trypan blue exclusion) (Mia-Paca-2 cells): induced high levels of anoikis
Growth in suspension (HL-60): inhibited
Soft agar growth (S462.TY): Soft agar growth inhibited
Soft agar growth (H1299): Soft agar growth inhibited
Soft agar growth (A375): 10 uM, no effect at 2 uM

SMILES: CCCc1ccc(NC(=O)CN(C)CC(=O)Nc2cccc(F)c2)cc1S(=O)(=O)N1CCCCCC1 [JAB-6-176]
normal 2-D growth [2]: little effect
3-D soft agar growth (tumor cells): suppressed

— patent US12582660B2, “Inhibitors of the RAS oncoprotein, methods of making and methods of use thereof” (University of Louisville Research Foundation, Inc., priority 2018, dated 2026)
